Columns and labels:
mouse lenses [1] = assay: Stiffness of ex vivo mouse lenses (Example 18); design: species or system mouse (C57BL/6J); conditions: 1 mM, 24 hours, ex vivo mouse lenses (3-6 months old); not significant
Description: In this example, the lenses were dissected from the eyes of mice (C57BL/6J, 3-6 months old, Jackson Laboratories, Stock No. 000664) by a posterior approach and incubated without (“Control”) or with Aggrelyte-2 or Aggrelyte-2A (1 mM) for 24 hours in serum-free and phenol-red-free MEM (297 mOsm) at 37° C. Lens stiffness was measured as in Example 10, except that the load was applied at 50 mg increments.

mouse lenses [2] = assay: Acetylated proteins in ex vivo treated mouse lenses (Western blot, Example 19); conditions: 1 mM, 24 hours
Description: The lenses from Example 18 were homogenized using N2-bubbled 50 mM phosphate buffer, pH 7.4 (0.4 mL per lens), in a hand-held motorized homogenizer. The homogenate was centrifuged at 20,000×g for 20 minutes at 4° C. The resulting supernatant was collected, and its protein content was measured using BCA Protein Assay Kit using BSA as the standard. The soluble protein was subjected to 12% SDS-PAGE under denaturing conditions and the proteins were electrophoretically transferred to a nitrocellulose membrane and blocked with 5% nonfat dry milk. The membrane was then incubated with a monoclonal antibody against N-acetyllysine (AcK antibody @ 1:5,000 dilution; Cell Signaling Technology Catalog #9681S) for 16 hours, followed by horseradish peroxidase (HRP)-conjugated goat anti-mouse IgG (1:5,000 dilution; Cell Signaling Technology Catalog #7076S) for 1 hour. Chemiluminescence was detected using the Enhanced Chemiluminescence Detection Kit. The membrane was stained with Ponceau-S to visualize the proteins and normalize acetyllysine (AcK)-bearing protein to total protein load.

human lenses [3] = assay: Stiffness of ex vivo human lenses (Example 22); conditions: 250 μM, 48 hours
Description: To test the effects of Aggrelyte-2 and Aggrelyte-2A on human lenses (age: 47-67 years), lenses were incubated in media containing freshly dissolved aggrelyte (250 μM) for 48 hours, with aggrelyte replacement after 24 hours. One lens from each donor pair was treated with aggrelyte, while the other was used as the control. After incubation, lens stiffness was measured, as described above in Example 20.

human lenses [4] = assay: Acetylated proteins in ex vivo treated human lenses (Example 23); conditions: 250 μM, 48 hours
Description: Each lens from Example 21 was decapsulated and homogenized in N2-bubbled 50 mM phosphate buffer, pH 7.4 (1.5 mL per lens), in a hand-held glass homogenizer. The sample was processed and evaluated for protein content as described in Example 19.

mouse lenses [5] = conditions: 40 mM topical twice daily for four weeks, mice
Description: A 40 mM solution of Aggrelyte-2A was prepared in a liquid formulation that consisted of benzalkonium chloride (0.001%), NaH2PO4·H2O (0.269%), Na2HPO4 (0.433%), hypromellose (0.2%), and NaCl (0.5%). Aggrelyte-2A in the formulation (5 μl) was applied to the right eye twice daily (8 AM and 4 PM) to unanesthetized animals for four weeks. The left eye received only the formulation (5 μl) (“Vehicle” or “Control”). After treatment, the animals were euthanized by CO2 asphyxiation. The eyes were enucleated, and the lenses were removed immediately by a posterior approach and placed in fresh PBS. The stiffness of the lenses was measured using a computer-controlled lens squeezer. The AcK-bearing protein levels of the lenses were measured by Western blotting. The protein-thiol content of the lenses was measured using a Thiol Quantification Assay Kit from Abcam, using reduced GSH as the standard.

αA-crystallin (αAC) = molecular target: T1, αA-crystallin (αAC) (Homo sapiens, UniProt P02489); assay: Relative protein acetylation capability on recombinant αAC; assay type: biochemical; conditions: 500 μM acetylating agent, αAC 3 mg/mL, 24 hours, 37° C.
T1 sequence (P02489 1-173): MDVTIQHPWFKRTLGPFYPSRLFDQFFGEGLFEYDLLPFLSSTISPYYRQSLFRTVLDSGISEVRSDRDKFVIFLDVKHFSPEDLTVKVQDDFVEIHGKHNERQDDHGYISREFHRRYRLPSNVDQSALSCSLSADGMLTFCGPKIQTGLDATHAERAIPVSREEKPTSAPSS
Description: The relative ability of Aggrelyte-2 to acetylate lysine residues in proteins was investigated using αA-crystallin (αAC). Human recombinant αAC (3 mg/mL PBS) was incubated in 50 mM sodium phosphate buffer, pH 7.4, for 24 hours at 37° C. while shaking without or with 500 μM acetylating agent (Aggrelyte-2, acetyl-CoA, acetic anhydride, or aspirin), dialyzed against PBS for 24 hours at 4° C.

WI proteins (human lens) = assay: Relationship between protein acetylation and solubility: WI proteins treated with acetic anhydride or Aggrelyte-2; assay type: biochemical
Description: To determine whether protein acetylation alone contributed to lens protein solubility, the soluble protein levels in WI proteins treated with acetic anhydride and Aggrelyte-2 were compared.

In the case of `COC(=O)[C@H](CSC(C)=O)NC(=O)CC(C)(C)C` [Aggrelyte-2A, methyl S-acetyl-N-(3,3,-dimethylbutanoyl)-L-cysteinate], the “reduction of lens stiffness” value (mouse lenses [1]) was “approximately 20%”, the “density of acetyl-bearing proteins, % increase compared to Aggrelyte-2” value (mouse lenses [2]) was “at least 50%” and the “density of acetyl-bearing proteins, fold increase compared to untreated control lenses” value (mouse lenses [2]) was 5 fold. For the same molecule, the “reduction of lens stiffness compared to vehicle-treated lenses” value (human lenses [3]; ex vivo human lenses (47-67 years)) was “approximately 15%”, the “significance of stiffness reduction at 2000-mg load” value (human lenses [3]; ex vivo human lenses, 2000-mg load (p<0.05)) was “significant” and the “increase in density of acetyl-bearing proteins compared to control lenses” value (human lenses [4]) was “approximately 5%”. For the same molecule, the “increase in protein thiol content compared to vehicle-treated lenses” value (mouse lenses [5]) was “approximately 8%”, the “reduction of lens stiffness compared to vehicle-treated lenses” value (mouse lenses [5]; 200-mg load) was “approximately 12%” and the “increase in density of AcK-bearing proteins compared to vehicle-treated lenses” value (mouse lenses [5]; Western blot) was “approximately 10%”. For the same molecule, the “reduction in stiffness at 400- and 500-mg loads” value (mouse lenses [5]; relative to 200-mg load result) was “similar”.
With `CC(=O)OC(C)=O` [acetic anhydride] the “acetylating potency, fold higher than Aggrelyte-2” value (αA-crystallin (αAC)) was ~21 fold, the “rank order of acetylating agents” value (αA-crystallin (αAC)) was “most potent acetylating agent” and the “acetylation of WI proteins, comparison” value (WI proteins (human lens)) was “better acetylating agent than Aggrelyte-2”.
In the case of `CC(=O)SCCNC(=O)CCNC(=O)[C@H](O)C(C)(C)COP(=O)(O)OP(=O)(O)OC[C@H]1O[C@@H](n2cnc3c(N)ncnc32)[C@H](O)[C@@H]1OP(=O)(O)O` [acetyl-CoA], the “rank order of acetylating agents” value (αA-crystallin (αAC)) was “followed by Aggrelyte-2, aspirin, and acetyl-CoA”.
For `CC(=O)Oc1ccccc1C(=O)O` [aspirin], the “rank order of acetylating agents” value (αA-crystallin (αAC)) was “followed by Aggrelyte-2, aspirin, and acetyl-CoA”.

Reference: patent US12350250B2, “Aggrelytes for treating ocular conditions” (The Regents of the University of Colorado, a Body Corporate, priority 2022, dated 2025)
